From patent publication US9446066B2, “Methods for reducing pulmonary uptake of intravenously injected cells” (priority 2010, dated 2016)
“And” between values parts separate entries of the source, which are not always exact repeats. Equal values may be shown once.

What was measured:
Porcine T-lymphoblasts = assay: T-lymphoblast labeling and in vitro retention of [18F]FDG; assay type: cell-based; details: mono-exponential fit, R^2=0.99; 6 time points over 120 minutes
Protocol: (§1) [^18F]FDG (t1/2=109.8 min) was prepared according to standard procedures (TRACERIab FxFDG, GE Medical Systems, USA). Cells were incubated with [^18F]FDG in 7-10 mL PBS for 60 minutes at 37° C. before being washed to remove excess radioactivity.
The retention (the rate of tracer washout through GLUTs after dephosphorylation of [^18F]FDG-6P) was measured in triplicates at 6 different time points over 120 minutes and the retention half-life was estimated by fitting the data to a mono-exponential curve.

T-lymphoblasts = assay: PET-examination of lung uptake and distribution of transfused [18F]FDG-labeled T-lymphoblasts; assay type: in vivo, pig; details: for pulmonary uptake of T-lymphoblasts compared to intravenous administration alone (in words): pre-incubation and intravenous co-administration with dextran sulfate
Protocol: In this study we present a method to monitor transfusion of T-lymphoblasts in vivo in a porcine model by PET-imaging. Porcine T-lymphoblasts were labeled with [^18F]FDG prior to administration, and the kinetics and bio-distribution of the cells was monitored for up to 2 hours. [^18F]FDG is a functional analogue to glucose, but cannot be metabolized further than the initial phosphorylation by hexokinase and is trapped in the cell cytoplasm. The same concept has been applied by our group to image transplantation of islets of Langerhans in a porcine model and in the clinical setting.
In the present work, three modes of administration were compared; intravenous administration with or without co-administration of the complement and coagulatory inhibitor low molecular weight dextran sulphate (LMW-DS), and intraarterial administration.
Spleens from three months old pigs were surgically resected and stored in PBS for immediate preparation. Spleens were cut into smaller fragments and mashed first against a 1 mm steel mesh and a second time with a syringe rubber plunger against a fine nylon mesh. The tissue was resuspended in PBS and the T-lymphoblasts were isolated using Ficoll-Paque (GE-Healthcare Uppsala, Sweden) density gradient centrifugation. All T-lymphoblasts were activated with PHA (1 μg/mL) (Invitrogen, Carlsbad, Calif., USA) to simulate the clinical setting of adoptively transferred tumor infiltrating lymphocytes.
T-lymphoblasts were suspended in 10-15 mL of PBS and administered over 10 minutes either intravenously into the internal jugular vein (n=5) or intraarterially into the ascending aorta (n=1). Two of the pigs given intravenous administration were pretreated with LMW-DS (4.5 mg/kg) (Apoteket AB, Umeå, Sweden). The T-lymphoblasts were in these two cases co-administered intravenously together with LMW-DS (9 mg/kg, followed by continuous infusion of 7.2 mg/kg/h).
as §1
Six pigs were examined by PET after administration of [^18F]FDG-labeled T-lymphoblasts. A GE Discovery ST PET/CT scanner (n=3) or a Hamamatsu SHR-7700 scanner (n=3) was used. Dynamic sequences were acquired over the lungs and liver for up to 120 minutes. The kinetic data obtained was expressed as absolute number of cells or the percentage of administered cells. Results are given as averages±SEM.
The concentration and total amount of cells trapped in lung tissue could be quantified. Table 1 presents the amount of T-lymphoblasts in the lungs at 30 minutes. Between 80 and up to 635 million cells (16 to 79% of the grafts) was trapped in lung tissue after administration. To quantify the amount of cells trapped in hotspots we defined two levels of density: hotspots with a cellular density over either 250.000 cells/cc (moderate density) or over 500.000 cells/cc (high density).

[1] = human patients, following an administration of dextran sulfate; cited from earlier work
[2] = range over the two LMW-DS pigs, lungs at 30 minutes

Molecule	[18F]FDG retention half-life (Porcine T-lymphoblasts)	% of cells in lungs (T-lymphoblasts; at 30 minutes, single pig)	lung uptake (% of the administered T-lymphoblasts), average (T-lymphoblasts; at completed transfusion, intravenous co-administration of LMW-DS, pretreated pigs, n=2)	pulmonary uptake of T-lymphoblasts compared to intravenous administration alone (in words) (T-lymphoblasts)	pulmonary uptake of T-lymphoblasts compared to intravenous administration alone (in words) (T-lymphoblasts; listed as dextran sulfate)	amount of cells in high density hotspots (T-lymphoblasts; [2])	cells in high density hotspots as % of lung uptake (T-lymphoblasts; [2])	APTT safely achieved [1]
OC[C@H]1OC(O)[C@H]([18F])[C@@H](O)[C@@H]1O (stereo partly drawn) [[^18F]FDG, ^18F-2-fluoro-2-deoxy-D-glucose]	5.32 h							
low molecular weight dextran sulfate [LMW-DS]		16.3% and 31.8%	36.6%	lower	decreased	0-111 million cells	0-39%	about 250 s
